Assay results: publication PMC7324897 (Dose-Response, 2020)
“Also recorded” adds a separate entry of the source.

Tests used:
BChE = BChE (Homo sapiens, UniProt P06276); assay: Kinetic study of BChE inhibition; format: biochemical
BChE (from human serum) = BChE (from human serum) (Homo sapiens, UniProt P06276); assay: In vitro cholinesterase inhibition assay; format: biochemical
Sequence of BChE (from human serum) (P06276 29-602): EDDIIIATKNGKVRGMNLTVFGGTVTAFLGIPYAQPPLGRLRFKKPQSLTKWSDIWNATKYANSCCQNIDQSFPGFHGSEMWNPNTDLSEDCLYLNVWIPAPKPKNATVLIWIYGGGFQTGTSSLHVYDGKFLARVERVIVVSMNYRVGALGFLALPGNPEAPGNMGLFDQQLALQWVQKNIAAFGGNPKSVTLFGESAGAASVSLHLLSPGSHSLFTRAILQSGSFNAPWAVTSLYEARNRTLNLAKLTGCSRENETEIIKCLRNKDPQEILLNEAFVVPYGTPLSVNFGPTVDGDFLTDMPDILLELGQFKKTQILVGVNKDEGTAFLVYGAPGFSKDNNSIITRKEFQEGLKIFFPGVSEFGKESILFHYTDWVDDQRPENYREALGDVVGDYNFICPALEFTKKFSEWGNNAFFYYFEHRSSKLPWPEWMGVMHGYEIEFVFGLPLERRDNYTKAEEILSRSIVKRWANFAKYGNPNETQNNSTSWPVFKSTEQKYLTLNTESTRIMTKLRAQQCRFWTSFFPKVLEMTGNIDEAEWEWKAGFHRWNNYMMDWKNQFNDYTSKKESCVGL

Sequence of BChE (P06276 29-602): as above

## O=C1CN(C(=O)CCn2ccnc2)CC(O)CN1CCc1ccccc1 (centres unmarked) [Compound 5, 4-(3-(1H-imidazol-1-yl)propanoyl)-6-hydroxy-1-phenethyl-1,4-diazepan-2-one]
BChE
  Ki: 540 ± 70 nM
  Type of BChE inhibition: mixed-type inhibitor; also recorded: mixed-type inhibition
BChE; substrate BTC 90-904 μM
  Inhibition constant Ki, uncompetitive part (Kiu): 2900 ± 1000 nM
BChE (from human serum)
  IC50: 1400 nM
BChE (from human serum); read-out: BChE IR (%), inhibition ratio
  inhibition at 10 µM: 66%
